# Results as given in US4895727A, “Pharmaceutical vehicles for exhancing penetration and retention in the skin” (priority 1985, dated 1990).
# Tested on: not given
# Details: background; cited from earlier work
row,Compound,systemic toxicity
1,CN(Cc1cnc2nc(N)nc(N)c2n1)c1ccc(C(=O)N[C@@H](CCC(=O)O)C(=O)O)cc1 [methotrexate],systemically toxic

# Tested on: human breast adenocarcinoma, MX-1
# Details: in vivo
Compound,Premature Death,Tumor at Death,Tumor Free 60 Days,Tumor Recurrence
"CC(Cc1ccc(O)c(O)c1)C(C)Cc1ccc(O)c(O)c1 (racemic) [dl-NDGA (no Zn), nordihydroguaiaretic acid]",0,1,,
"Oc1ccc(CCc2ccc(CCc3ccc(O)c(O)c3)cc2)cc1O [1,4-bis(3,4-dihydroxyphenethyl)-benzene]",0,,,
"CC(=O)Oc1ccc(C=CC=Cc2ccccc2)cc1OC(C)=O [1-(3,4-diacetoxyphenyl)-4-phenyl-buta-1,3-diene]",0,,,
"CC(C)(C)c1cccc(O)c1 [3-tertbutylphenol (no Zn), 3-tertbutylphenol]",3,,,
"COc1cc(C2c3cc4c(cc3C(O)C3COC(=O)C23)OCO4)cc(OC)c1O (centres unmarked) [4'-demethylepipodophyllotoxin (no Zn), 4'-demethylepipodophyllotoxin]",0,4,1,3
"COc1cc(C2c3cc4c(cc3C(OC3OC5COC(c6cccs6)OC5C(O)C3O)C3COC(=O)C23)OCO4)cc(OC)c1O (stereo not drawn) [VM-26 (no Zn), epipodophyllotoxin beta-D thenylidene glucopyranoside]",0,5,0,0
"COc1cc(C2c3cc4c(cc3C(OC3OC5COC(C)OC5C(O)C3O)C3COC(=O)C23)OCO4)cc(OC)c1O (stereo not drawn) [VP-16 (no Zn), epipodophyllotoxin beta-D ethylidene glucopyranoside]",2,3,2,0
"COc1cccc2c1C(=O)c1c(O)c3c(c(O)c1C2=O)C[C@@](O)(C(=O)CO)C[C@@H]3O[C@H]1C[C@H](N)[C@H](O)[C@H](C)O1 [adriamycin (no Zn), adriamycin]",1,,,
"Oc1ncnc2[nH]ncc12 [allopurinol (no Zn), allopurinol]",0,,,
"O=C(O)CCCCCCCC(=O)O [azelaic acid (no Zn), azelaic acid]",0,,,
"O=P1(N(CCCl)CCCl)NCCCO1 (centres unmarked) [cyclophosphamide (no Zn), cyclophosphamide]",0,5,,
"COc1cccc2c1C(=O)c1c(O)c3c(c(O)c1C2=O)C[C@@](O)(C(C)=O)C[C@@H]3O[C@H]1C[C@H](N)[C@H](O)[C@H](C)O1 [daunomycin (no Zn), daunomycin]",2,,,
"CC/C(=C(/CC)c1ccc(O)cc1)c1ccc(O)cc1 [diethylstilbestrol (no Zn), diethylstilbestrol]",2,,,
"O=C1c2c(O)cccc2Cc2cccc(O)c21 [dithranol (no Zn), dithranol]",0,,,
"CO[C@@]12[C@H](COC(N)=O)C3=C(C(=O)C(C)=C(N)C3=O)N1C[C@@H]1N[C@@H]12 [mitomycin (no Zn), mitomycin]",4,,,
"O=C(O)C=Cc1ccc(O)cc1 [p-hydroxycinnamic acid (no Zn), p-hydroxycinnamic acid]",0,,,
"N.N.[Cl][Pt][Cl] [platinum cis-diamine-dichloride (no Zn), platinum cis-diamine-dichloride]",0,4,,
norisoguaiacin [norisoguaiacin (no Zn)],1,1,,

# Same assay, conditions: number of animals of five; single intratumor injection 0.01 ml; standard dosage level
Compound,Tumor Free 60 Days,Tumor Recurrence
"CC(Cc1ccc(O)c(O)c1)C(C)Cc1ccc(O)c(O)c1 (racemic) [dl-NDGA (no Zn), nordihydroguaiaretic acid]",4,0
"O=P1(N(CCCl)CCCl)NCCCO1 (centres unmarked) [cyclophosphamide (no Zn), cyclophosphamide]",0,0
"N.N.[Cl][Pt][Cl] [platinum cis-diamine-dichloride (no Zn), platinum cis-diamine-dichloride]",1,0
norisoguaiacin [norisoguaiacin (no Zn)],2,0

# Tested on: not given
# Details: 0.257 moles per 100 grams; general statement; cited from earlier work
row,Compound,concentration causing tissue destruction when topically applied
1,[Cl-].[Cl-].[Zn+2] [zinc chloride],≥ 35%
